# Measurements from ChEMBL document CHEMBL6103565, “Current strategies in design and synthesis of antifungals hybrid and chimeric diazine derivatives” (Bioorg Med Chem, 2025).
# Tests used:
# [1] = tested on: Candida albicans; assay: Antifungal activity against Candida albicans assessed as diameter of zone inhibition by disc diffusion method; format: functional
# [2] = tested on: Aspergillus niger; assay: Antifungal activity against Aspergillus niger assessed as zone of inhibition by disc diffusion method; format: functional
# Further: test concentration or dose not given here.
SMILES,inhibition zone (IZ) [1] [mm],inhibition zone (IZ) [2] [mm]
COC(=O)c1c(C(=O)OC)c2cccnn2c1C(=O)c1ccc(C)cc1,18,–
CCOC(=O)c1cc(C(=O)c2ccc(C)cc2)n2ncccc12,18,–
CC1=CC2C(C#N)CC(C(=O)c3ccc(Br)cc3)N2C=N1 (configuration not stated),22,–
CCOC(=O)c1cc(C(=O)c2ccc(C)cc2)n2nc(C)c3ccccc3c12,18,–
COc1ccc(C2c3c([nH]c(=O)[nH]c3=O)OC3N=CN(c4cc(C)ccn4)C(=N)C32)cc1 (configuration not stated),–,10
CCOC(=O)c1c(C(=O)OCC)c2cc(C)ncn2c1C(=O)c1ccc(Br)cc1,22,–
CCOC(=O)c1c(C(=O)OCC)c2cc(C)ncn2c1C(=O)c1ccc([N+](=O)[O-])cc1,28,–
CC1=NN2C(C(=O)c3ccc(C)cc3)CC(C#N)C2c2ccccc21 (configuration not stated),18,–
COc1ccc(C2c3c([nH]c(=O)[nH]c3=O)OC3N=CN(C(N)=O)C(=N)C32)cc1 (configuration not stated),–,10
CC1=NN(c2ccccc2)C2N=C3SCCN3C(c3ccccc3[N+](=O)[O-])C12 (configuration not stated),–,24
O=c1c(C(O)c2ccccc2)c2sc(S)c(-c3ccccc3)n2c2nc(-c3ccccc3)c(-c3ccccc3)n12 (configuration not stated),–,15
COC(=O)c1c(C(=O)OC)c2c3ccccc3cnn2c1C(=O)c1ccc(C)cc1,18,–
Cc1ccc(C2c3c([nH]c(=O)[nH]c3=O)OC(NC(=O)/C=C/C(=O)O)C2C#N)cc1 (configuration not stated),–,10
CC1=NN(c2ccccc2)C2N=C3SCCN3C(c3cccc(Cl)c3)C12 (configuration not stated),–,24
CC1=NN(c2ccccc2)C2N=C3SCCN3C(c3ccc(F)cc3)C12 (configuration not stated),–,24
CC1=CC2C(C#N)CC(C(=O)c3ccc([N+](=O)[O-])cc3)N2C=N1 (configuration not stated),24,–

SMILES,inhibition zone (IZ) [1] [mm],inhibition zone (IZ) [2] [mm]
CC1=NN2C(C(=O)c3ccc(C)cc3)C3C(=O)N(c4ccccc4)C(=O)C3C2c2ccccc21 (configuration not stated),18,–
COc1ccc(C2c3c([nH]c(=O)[nH]c3=O)OC3N=CN(c4ccccc4N)C(=N)C32)cc1 (configuration not stated),–,10
Cc1ccc(C(=O)C2C3C(=O)N(c4ccccc4)C(=O)C3C3c4ccccc4C=NN23)cc1 (configuration not stated),18,–
Cc1ccc(C(=O)C2CC(C#N)C3c4ccccc4C=NN23)cc1 (configuration not stated),18,–
CCOC(=O)c1c(C(=O)OCC)c2cc(C)ncn2c1C(=O)c1ccc(OC)cc1,24,–
Cc1ccc(C2c3c([nH]c(=O)[nH]c3=O)OC(N)C2C#N)cc1 (configuration not stated),–,10
Cc1ccc(C(=O)C2C3C(=O)N(c4ccccc4)C(=O)C3C3C=CC=NN32)cc1 (configuration not stated),18,–
O=c1c(C(O)c2ccccc2)c(SCc2ccccc2)[nH]c2nc(-c3ccccc3)c(-c3ccccc3)n12 (configuration not stated),–,15
Cc1ccc(C(=O)C2CC(C#N)C3C=CC=NN23)cc1 (configuration not stated),18,–
CCOC(=O)c1cc(C(=O)c2ccc(C)cc2)n2ncc3ccccc3c12,18,–
CC1=NN(c2ccccc2)C2N=C3SCCN3C(c3ccccc3O)C12 (configuration not stated),–,24
COc1ccc(C(=O)C2CC(C#N)C3C=C(C)N=CN23)cc1 (configuration not stated),23,–
CC1=NN(c2ccccc2)C2N=C3SCCN3C(c3cccc([N+](=O)[O-])c3)C12 (configuration not stated),–,24
COc1ccc(C2c3c([nH]c(=O)[nH]c3=O)OC3N=CN(C(=S)Nc4ccccc4)C(=N)C32)cc1 (configuration not stated),–,10
CCC(C)N1C=NC2Oc3[nH]c(=O)[nH]c(=O)c3C(c3ccc(OC)cc3)C2C1=N (configuration not stated),–,10
CC1=NN(c2ccccc2)C2N=C3SCCN3C(c3ccccc3Cl)C12 (configuration not stated),–,24
